TGI data for 20 compounds are collected here from PubChem BioAssay (NCI).

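Test compounds were applied to cells in 96-well plates for 48 hours at 5 doses. TGI: total growth inhibition.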

Holding throughout (assay): inhibition of tumour cell growth, NCI panel, 48 h
In experiment [1] the test system is A549 NSCLC.
Experiment [2] concerns DLD-1 colon.
In experiment [3] the test system is DMS 114 small cell lung.
For experiment [4], the system named is DMS 273 small cell lung.
The subject of experiment [5] is HOP-92 NSCLC.
Experiment [6] has as its system KM20L2 colon.
Experiment [7] concerns LOX IMVI melanoma.
Experiment [8] concerns LXFL 529 NSCLC.
The subject of experiment [9] is M19-MEL melanoma.
The subject of experiment [10] is OVCAR-3 ovarian.
Experiment [11] deals with SK-MEL-28 melanoma.
Experiment [12] has as its system SR leukemia.
Experiment [13] concerns U251 CNS.
In experiment [14] the test system is UACC-62 melanoma.
Experiment [15] relates to XF 498 CNS.
In experiment [16] the test system is CAKI-1 renal.

For `C=CCC(N(C)C(=O)[C@H](Cc1ccccc1)NC(=O)OCc1ccccc1)P(=O)(Oc1ccccc1)Oc1ccccc1` (some centres undefined), the TGI in [1], in experiment [2], in experiment [3], in experiment [4], in [5] and in [6] was more than 100 µM each time. Moreover, the TGI in experiment [7], in experiment [8], in experiment [9], in experiment [10], in experiment [11] and in [12] was more than 100 µM in each case. In addition, the TGI in experiment [13], in experiment [14] and in experiment [15] was more than 100 µM throughout.
For `CC(C)CC(NC(=O)OC(C)(C)C)C(=O)Nc1ccc(Nc2nc(F)nc(-c3c4ccccc4c4n3CCS4)n2)cc1` (centres undefined), the TGI in experiment [1] was more than 100 µM; in experiment [16], 33.1 µM; in [2], 36.8 µM; in experiment [3] it was 37.5 µM; in experiment [4], 30.6 µM; in experiment [5], 34.4 µM. In addition, the TGI in experiment [6] was 32.3 µM; in experiment [8], 35.2 µM; in [10], 36.7 µM; in experiment [11], 42.7 µM; in experiment [12], 34.7 µM; in experiment [13] it was 33.3 µM. In addition, the TGI in experiment [14] was determined as 31.9 µM; in experiment [15], 42.3 µM.
Take `CN(C)C(=S)/N=c1\ssc(=S)n1Cc1ccccc1`: the TGI in experiment [1] is 56 µM; in experiment [16] it was more than 56.2 µM; in experiment [2], more than 55.1 µM; in [3], 0.456 µM; in [5], 7.63 µM; in experiment [6] it was 0.388 µM. The TGI in [7] is more than 63.1 µM; in [8], more than 100 µM; in experiment [9] it was more than 100 µM; in experiment [10], 0.512 µM; in experiment [11] it was more than 63.1 µM; in experiment [12] it was 37.3 µM. Besides, the TGI amounted to 18.6 µM in [13] and 16.8 µM in [14].
Turning to `O=C1c2ccccc2OP(=O)(OCC(F)(F)F)OC1(C(F)(F)F)C(F)(F)F` (centres undefined), the TGI in experiment [1], in [16], in experiment [3], in [4], in experiment [5] and in experiment [6] was more than 100 µM throughout. The TGI in [7], in [8], in [9], in experiment [11], in experiment [12] and in experiment [13] was more than 100 µM each time. Further, the TGI in [14] and in [15] was more than 100 µM in each case.
Turning to `Nc1ccc2c(SCc3ccc([N+](=O)[O-])cc3)c3ccccc3nc2c1`, the TGI in experiment [1] amounted to 48.9 µM; in [16], 28.7 µM; in experiment [2], 6.04 µM; in [3], 29.8 µM; in experiment [4], 39.2 µM; in experiment [5], 36.4 µM. Further, the TGI in experiment [6] is 31.6 µM; in [7], 19.1 µM; in experiment [8], 18.5 µM; in experiment [9], 26.5 µM; in experiment [10], 30.2 µM; in experiment [11] it was 33.5 µM. Moreover, the TGI in [12] was found to be 5.05 µM; in experiment [13], 38.1 µM; in experiment [14], 31.3 µM; in [15], 27.7 µM.
Regarding `Cc1ccc([N+](=O)[O-])cc1NC(=O)/C(=N/NC(=S)NN)C1SC(=S)NC1=O` (centres undefined), the TGI in experiment [1], in [16], in experiment [2], in experiment [3], in experiment [4] and in [5] was more than 100 µM throughout. Further, the TGI in experiment [6], in experiment [7], in [8], in experiment [11], in [12] and in experiment [13] was more than 100 µM in each case. Besides, the TGI in experiment [14] and in experiment [15] was more than 100 µM throughout.
As to `COC(=O)CC1NC(=O)[C@@H]1C(C)O` (some centres undefined), the TGI in experiment [1], in experiment [3], in experiment [4], in [6], in experiment [7] and in experiment [8] was more than 100 µM throughout. Moreover, the TGI in experiment [9], in experiment [10], in experiment [11], in experiment [12], in experiment [13] and in experiment [14] was more than 100 µM throughout. Moreover, the TGI in experiment [15] is more than 100 µM.
Take `N#C/C(c1nc2ccccc2[nH]1)=c1\s/c(=C/c2ccc(Cl)cc2)c(=O)n1-c1ccccc1`: the TGI in experiment [1], in [16], in experiment [2], in experiment [3], in experiment [4] and in experiment [5] was more than 100 µM in each case. Further, the TGI in experiment [6], in experiment [7], in [8], in [9], in experiment [10] and in [11] was more than 100 µM in each case. In addition, the TGI in [12], in experiment [13], in experiment [14] and in experiment [15] was more than 100 µM in each case.
Turning to `Cc1ccc(N2C(=O)CS/C2=C(\C#N)c2nc3ccccc3[nH]2)cc1`, the TGI in experiment [1], in experiment [16], in experiment [2], in experiment [3], in experiment [4] and in [5] was more than 100 µM each time. The TGI in experiment [6], in experiment [7], in experiment [8], in experiment [9], in experiment [10] and in [11] was more than 100 µM throughout. Also, the TGI is more than 100 µM in [12], more than 100 µM in experiment [13], 82.7 µM in experiment [14] and more than 100 µM in experiment [15].
On to `COc1ccc(N=Cc2ccc(N(CCC#N)S(=O)(=O)c3ccccc3)cc2)cc1`, for which the TGI in experiment [1], in experiment [16], in experiment [2], in experiment [3], in experiment [4] and in experiment [5] was more than 100 µM in each case. The TGI in experiment [6], in experiment [7], in experiment [8], in experiment [9], in experiment [10] and in [11] was more than 100 µM each time. Besides, the TGI in [12], in [13], in [14] and in [15] was more than 100 µM in each case.
`CCOC(=O)/C=C/n1c2ccccc2c(=O)c2ccccc21`: the TGI in experiment [1], in experiment [16], in experiment [2], in experiment [3], in experiment [4] and in experiment [6] was more than 100 µM each time. Also, the TGI in experiment [7], in experiment [8], in experiment [9], in [10], in experiment [11] and in [12] was more than 100 µM throughout. Also, the TGI in experiment [13], in experiment [14] and in experiment [15] was more than 100 µM each time.
Regarding `CCOC(=O)c1nc2ccccc2nc1NCc1cc(OC)c(OC)c(OC)c1`, the TGI in experiment [1], in experiment [16], in experiment [5], in experiment [7], in [10] and in experiment [11] was more than 100 µM throughout. Also, the TGI in [12], in experiment [13] and in experiment [14] was more than 100 µM each time.
Take `Nc1nc(SCc2ccc([N+](=O)[O-])cc2)nc2c1ncn2C1OC(CO)C(O)C1O` (centres undefined): the TGI in experiment [1], in experiment [2], in experiment [3], in [4], in [6] and in experiment [7] was more than 100 µM each time. For the same compound, the TGI in experiment [8], in [9], in experiment [10], in [11], in [12] and in [13] was more than 100 µM throughout. This compound showed a TGI in [15] of more than 100 µM.
In the case of `C[C@@H](c1ccccc1)N1CN(C(=O)OCc2ccccc2)C(C)(C)CC1=O`, the TGI in experiment [1], in [16], in experiment [5], in experiment [7], in experiment [10] and in experiment [11] was more than 100 µM throughout. In addition, the TGI in [12], in experiment [13] and in experiment [14] was more than 100 µM each time.
On to `NC(=O)c1cc2ccc(O)cc2oc1=Nc1ccccc1`, for which the TGI in [1], in [16], in experiment [5], in experiment [7], in experiment [10] and in experiment [11] was more than 100 µM each time. Besides, the results for the TGI in [12], in [13] and in [14] were 53.9 µM, more than 100 µM and more than 100 µM, respectively.
As for `CCOc1ccc(/C(Cl)=C(\C=O)c2ccc(OC)c(OC)c2)cc1OCC`, the TGI in [1] was more than 100 µM; in [16], more than 100 µM; in experiment [2], more than 100 µM; in experiment [3] it was 66.1 µM; in [4], more than 100 µM; in experiment [5], more than 100 µM. Besides, the TGI in [6], in [7], in experiment [8], in [9], in [10] and in experiment [11] was more than 100 µM throughout. The TGI in [12] is 50.8 µM; in experiment [13], 97.5 µM; in experiment [14] it was more than 100 µM; in [15], more than 100 µM.
Turning to `CN(C)C(=S)/N=c1\ssc(=S)n1Cc1cccnc1`, the TGI in [1] is more than 100 µM; in experiment [16], more than 100 µM; in [2], more than 100 µM; in [3], 3.89 µM; in [4] it was more than 100 µM; in [5], more than 100 µM. Moreover, the TGI in [6] was 4.27 µM; in experiment [7] it was more than 100 µM; in [8] it was more than 100 µM; in experiment [9] it was more than 46.6 µM; in experiment [10], 9.47 µM; in experiment [11], more than 100 µM. The TGI is more than 100 µM in [12], more than 94.9 µM in [13], more than 67.7 µM in [14] and 47.1 µM in experiment [15].
Regarding `COc1ccc(CC(=O)N2CCC3(C)CC(=O)CC=C23)cc1OC` (centres undefined), the TGI in [1], in [16], in experiment [5], in experiment [7], in [10] and in [11] was more than 100 µM throughout. The TGI in experiment [12], in experiment [13] and in experiment [14] was more than 100 µM throughout.
Take `Cc1cc2c(cc1Cl)S(=O)(=O)OC(c1ccc([N+](=O)[O-])cc1)=N2`: the TGI in experiment [1], in experiment [16], in experiment [5], in experiment [7], in experiment [10] and in experiment [11] was more than 100 µM each time. The TGI in [12], in experiment [13] and in experiment [14] was more than 100 µM in each case.
For `CC1CN(c2ccc(Cl)cc2)CC(C)OC(=O)O1` (centres undefined), the TGI in experiment [1], in experiment [16], in experiment [2], in [3], in experiment [4] and in [5] was more than 100 µM in each case. Besides, the TGI in [6], in [7], in [8], in experiment [9], in experiment [10] and in experiment [11] was more than 100 µM throughout. The TGI in [12], in experiment [13], in experiment [14] and in [15] was more than 100 µM in each case.
